{
  "source": "paper PMC10657792",
  "about": "“Downstream Allosteric Modulation of NMDA Receptors by 3-Benzazepine Derivatives” (Molecular Neurobiology, 2023)",
  "key": {"GluN2B subunits": {"tested_on": "GluN2B subunits", "conditions": "cited from earlier work"}, "GluN2B": {"tested_on": "GluN2B", "set-up": "method as in PMID 35710735", "conditions": "PET, non-human primates; cited from earlier work"}, "GluN1a wt/ GluN2B E236A": {"molecular_target": "GluN1a wt/ GluN2B E236A (Rattus norvegicus, UniProt P35439+Q00960, E236A)", "sequence (Q00960 27-1482 E236A, other chains not shown)": "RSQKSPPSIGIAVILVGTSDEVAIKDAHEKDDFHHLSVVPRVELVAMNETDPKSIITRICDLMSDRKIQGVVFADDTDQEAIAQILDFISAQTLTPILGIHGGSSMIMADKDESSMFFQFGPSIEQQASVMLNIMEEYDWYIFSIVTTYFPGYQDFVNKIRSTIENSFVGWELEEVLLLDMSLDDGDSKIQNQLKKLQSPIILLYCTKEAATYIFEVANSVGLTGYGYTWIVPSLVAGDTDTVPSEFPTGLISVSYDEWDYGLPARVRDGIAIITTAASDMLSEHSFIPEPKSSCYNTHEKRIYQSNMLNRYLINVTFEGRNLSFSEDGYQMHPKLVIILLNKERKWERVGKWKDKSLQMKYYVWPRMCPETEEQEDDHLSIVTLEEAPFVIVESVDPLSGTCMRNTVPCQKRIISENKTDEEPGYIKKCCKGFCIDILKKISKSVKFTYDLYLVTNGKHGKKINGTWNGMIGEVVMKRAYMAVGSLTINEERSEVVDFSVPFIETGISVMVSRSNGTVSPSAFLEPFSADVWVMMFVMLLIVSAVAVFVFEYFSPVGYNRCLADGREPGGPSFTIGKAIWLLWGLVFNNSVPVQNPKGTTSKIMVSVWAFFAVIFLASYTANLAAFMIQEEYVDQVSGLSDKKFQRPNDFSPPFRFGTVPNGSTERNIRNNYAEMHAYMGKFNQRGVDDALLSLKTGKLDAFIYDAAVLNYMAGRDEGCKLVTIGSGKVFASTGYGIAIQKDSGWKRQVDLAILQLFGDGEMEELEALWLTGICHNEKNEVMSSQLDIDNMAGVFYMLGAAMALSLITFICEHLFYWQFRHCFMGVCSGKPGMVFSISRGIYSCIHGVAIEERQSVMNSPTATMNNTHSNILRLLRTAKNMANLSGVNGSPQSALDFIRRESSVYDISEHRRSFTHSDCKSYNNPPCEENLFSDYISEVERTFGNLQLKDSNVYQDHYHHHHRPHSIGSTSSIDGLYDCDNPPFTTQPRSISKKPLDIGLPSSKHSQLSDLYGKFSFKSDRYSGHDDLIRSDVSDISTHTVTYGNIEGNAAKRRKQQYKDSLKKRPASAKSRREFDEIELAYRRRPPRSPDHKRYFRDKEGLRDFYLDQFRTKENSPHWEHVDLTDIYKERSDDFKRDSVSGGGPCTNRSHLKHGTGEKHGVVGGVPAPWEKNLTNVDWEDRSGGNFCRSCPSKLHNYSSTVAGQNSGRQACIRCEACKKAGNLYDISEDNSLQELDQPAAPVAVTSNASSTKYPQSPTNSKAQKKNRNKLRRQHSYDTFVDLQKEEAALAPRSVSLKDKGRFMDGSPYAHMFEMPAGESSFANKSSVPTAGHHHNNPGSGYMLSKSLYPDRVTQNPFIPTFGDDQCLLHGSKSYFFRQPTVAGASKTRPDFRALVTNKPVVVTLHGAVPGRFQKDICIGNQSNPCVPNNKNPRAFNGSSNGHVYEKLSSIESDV", "test": "TEVC recording in X. laevis oocytes, GluN2B mutant screening", "format": "cell-based", "conditions": "GluN1-1a/E236A, individual oocytes"}, "GluN1a wt/ GluN2B F114A": {"molecular_target": "GluN1a wt/ GluN2B F114A (Rattus norvegicus, UniProt P35439+Q00960, F114A)", "sequence (Q00960 27-1482 F114A, other chains not shown)": "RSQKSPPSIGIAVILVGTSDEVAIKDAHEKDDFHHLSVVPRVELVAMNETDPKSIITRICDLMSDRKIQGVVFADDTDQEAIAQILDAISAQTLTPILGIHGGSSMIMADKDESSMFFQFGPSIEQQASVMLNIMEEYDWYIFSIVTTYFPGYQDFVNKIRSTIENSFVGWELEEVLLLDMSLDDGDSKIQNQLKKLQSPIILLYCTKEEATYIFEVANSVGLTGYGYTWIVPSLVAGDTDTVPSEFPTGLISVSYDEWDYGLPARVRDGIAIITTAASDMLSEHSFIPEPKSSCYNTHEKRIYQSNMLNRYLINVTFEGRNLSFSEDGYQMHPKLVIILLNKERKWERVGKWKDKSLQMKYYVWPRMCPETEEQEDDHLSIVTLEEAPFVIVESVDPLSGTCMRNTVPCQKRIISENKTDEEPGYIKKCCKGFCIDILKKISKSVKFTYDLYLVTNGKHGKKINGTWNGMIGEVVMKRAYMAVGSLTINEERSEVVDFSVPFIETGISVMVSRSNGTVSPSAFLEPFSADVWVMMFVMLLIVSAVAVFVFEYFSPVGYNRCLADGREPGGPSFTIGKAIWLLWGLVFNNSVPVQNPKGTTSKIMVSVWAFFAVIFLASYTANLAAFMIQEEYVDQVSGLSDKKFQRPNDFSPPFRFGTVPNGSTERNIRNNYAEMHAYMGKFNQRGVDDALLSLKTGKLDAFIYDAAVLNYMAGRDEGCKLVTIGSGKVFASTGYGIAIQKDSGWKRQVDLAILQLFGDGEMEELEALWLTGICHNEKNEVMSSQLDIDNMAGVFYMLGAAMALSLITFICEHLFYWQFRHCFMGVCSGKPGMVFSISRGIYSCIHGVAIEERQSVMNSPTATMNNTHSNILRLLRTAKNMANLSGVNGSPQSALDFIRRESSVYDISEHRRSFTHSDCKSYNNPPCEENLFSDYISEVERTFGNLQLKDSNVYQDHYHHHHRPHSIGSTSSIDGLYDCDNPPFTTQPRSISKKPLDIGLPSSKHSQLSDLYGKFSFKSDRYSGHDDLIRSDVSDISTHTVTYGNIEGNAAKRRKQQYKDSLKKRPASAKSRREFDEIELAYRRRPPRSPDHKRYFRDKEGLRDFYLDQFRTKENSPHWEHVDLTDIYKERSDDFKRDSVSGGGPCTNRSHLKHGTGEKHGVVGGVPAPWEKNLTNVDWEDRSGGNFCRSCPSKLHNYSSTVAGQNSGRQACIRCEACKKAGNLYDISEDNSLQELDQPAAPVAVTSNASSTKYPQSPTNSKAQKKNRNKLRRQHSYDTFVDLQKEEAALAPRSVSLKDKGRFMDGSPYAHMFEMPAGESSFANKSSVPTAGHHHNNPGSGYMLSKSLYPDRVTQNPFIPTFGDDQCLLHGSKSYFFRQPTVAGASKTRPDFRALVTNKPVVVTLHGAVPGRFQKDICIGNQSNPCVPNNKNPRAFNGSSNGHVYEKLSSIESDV", "test": "TEVC recording in X. laevis oocytes, GluN2B mutant screening", "format": "cell-based", "conditions": "GluN1-1a/F114A, individual oocytes"}, "GluN1a wt/ GluN2B F176A": {"molecular_target": "GluN1a wt/ GluN2B F176A (Rattus norvegicus, UniProt P35439+Q00960, F176A)", "test": "Ligand binding assay with [3H]ifenprodil, membranes of transfected HEK cells", "conditions": "5 nM radioligand, non-specific binding with 10 µM unlabeled ifenprodil, 37 °C; single replicate", "protocol": "(§1) One day prior to transfection, human embryonic kidney (HEK) cells were reseeded into T75 flasks, aiming for a confluency of 70% after 24 h. HEK cells were then transiently co-transfected with the cDNAs (GluN1-1a/ eGFP, GluN1-1b/eGFP, GluN2B/pDsRed2-N1, GluN2B F176A/pDsRed2-N1, and GluN2B F194A/pDsRed2-N1) encoding the NMDAR subunits using Lipofectamine 3000 (Thermo Fisher Scientific, Germany) according to the manufacturer’s instructions. Approximately 60 h after transfection, the cells were resuspended in Dulbecco’s phosphate-buffered saline (PBS), and the positively double transfected cells were sorted using fluorescence-activated cell sorting (FACS). The membrane preparation, the protein yield determination, and ligand binding assay were performed as previously described. Briefly, the affinity for NMDAR was evaluated using a receptor binding assay, in which racemic […] (60 Ci/mmol; BIOTREND, Cologne, Germany), served as radioligand. The membrane fragments of NMDAR expressing HEK cells were incubated with 5 nM [^3H]ifenprodil and TRIS/EDTA-buffer (5 mM TRIS/1 mM EDTA, pH 7.5) at 37 °C. To evaluate the unspecific binding, 10 µM unlabeled ifenprodil was used."}, "GluN1b wt/ GluN2B F194A": {"molecular_target": "GluN1b wt/ GluN2B F194A (Rattus norvegicus, UniProt P35439+Q00960, F194A)", "test": "Ligand binding assay with [3H]ifenprodil, membranes of transfected HEK cells", "conditions": "5 nM radioligand, non-specific binding with 10 µM unlabeled ifenprodil, 37 °C; single replicate", "protocol": "as §1"}, "GluN1b wt/ GluN2B F176A": {"molecular_target": "GluN1b wt/ GluN2B F176A (Rattus norvegicus, UniProt P35439+Q00960, F176A)", "test": "Ligand binding assay with [3H]ifenprodil, membranes of transfected HEK cells", "conditions": "5 nM radioligand, non-specific binding with 10 µM unlabeled ifenprodil, 37 °C; single replicate", "protocol": "as §1"}, "GluN1a wt/ GluN2B F194A": {"molecular_target": "GluN1a wt/ GluN2B F194A (Rattus norvegicus, UniProt P35439+Q00960, F194A)", "sequence (Q00960 27-1482 F194A, other chains not shown)": "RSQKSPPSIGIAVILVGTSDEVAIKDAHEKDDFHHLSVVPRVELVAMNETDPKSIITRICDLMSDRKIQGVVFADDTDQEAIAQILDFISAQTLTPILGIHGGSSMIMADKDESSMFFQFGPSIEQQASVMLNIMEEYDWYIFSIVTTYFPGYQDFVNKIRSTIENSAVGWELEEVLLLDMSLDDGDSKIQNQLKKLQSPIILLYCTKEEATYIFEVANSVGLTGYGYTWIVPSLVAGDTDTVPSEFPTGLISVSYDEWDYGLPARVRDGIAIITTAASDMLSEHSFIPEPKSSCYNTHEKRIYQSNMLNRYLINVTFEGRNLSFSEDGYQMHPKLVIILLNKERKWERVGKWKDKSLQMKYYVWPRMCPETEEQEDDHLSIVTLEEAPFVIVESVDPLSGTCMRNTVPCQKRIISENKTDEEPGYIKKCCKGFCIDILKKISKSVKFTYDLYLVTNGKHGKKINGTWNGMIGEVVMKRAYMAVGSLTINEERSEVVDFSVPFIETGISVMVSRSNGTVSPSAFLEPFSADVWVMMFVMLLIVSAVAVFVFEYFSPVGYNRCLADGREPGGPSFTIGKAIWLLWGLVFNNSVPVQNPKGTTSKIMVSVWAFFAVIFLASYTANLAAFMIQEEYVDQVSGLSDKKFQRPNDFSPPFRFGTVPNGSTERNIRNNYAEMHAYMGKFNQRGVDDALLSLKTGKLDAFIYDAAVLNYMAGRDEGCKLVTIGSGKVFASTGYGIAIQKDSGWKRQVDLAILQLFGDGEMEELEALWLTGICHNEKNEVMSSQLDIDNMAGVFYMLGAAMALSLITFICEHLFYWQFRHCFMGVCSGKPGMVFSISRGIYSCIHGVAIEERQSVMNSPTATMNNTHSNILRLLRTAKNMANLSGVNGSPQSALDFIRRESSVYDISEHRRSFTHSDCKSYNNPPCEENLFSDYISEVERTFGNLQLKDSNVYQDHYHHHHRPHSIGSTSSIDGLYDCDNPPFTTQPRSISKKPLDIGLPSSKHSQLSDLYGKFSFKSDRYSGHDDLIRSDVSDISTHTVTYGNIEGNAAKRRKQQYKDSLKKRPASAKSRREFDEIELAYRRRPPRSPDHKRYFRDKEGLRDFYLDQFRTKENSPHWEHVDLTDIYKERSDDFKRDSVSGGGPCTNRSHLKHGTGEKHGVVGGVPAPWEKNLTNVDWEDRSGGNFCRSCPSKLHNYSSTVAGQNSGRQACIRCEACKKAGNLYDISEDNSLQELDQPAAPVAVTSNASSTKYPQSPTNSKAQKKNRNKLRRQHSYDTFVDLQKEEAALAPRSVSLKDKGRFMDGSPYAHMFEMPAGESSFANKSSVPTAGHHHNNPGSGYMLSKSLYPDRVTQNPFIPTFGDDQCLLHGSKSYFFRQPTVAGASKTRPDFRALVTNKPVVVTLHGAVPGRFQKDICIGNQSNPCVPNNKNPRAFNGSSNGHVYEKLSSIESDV", "test": "Ligand binding assay with [3H]ifenprodil, membranes of transfected HEK cells", "conditions": "5 nM radioligand, non-specific binding with 10 µM unlabeled ifenprodil, 37 °C; single replicate", "protocol": "as §1"}, "GluN1a wt/ GluN2B wt": {"molecular_target": "GluN1a wt/ GluN2B wt (Rattus norvegicus, UniProt P35439+Q00960)", "test": "Ligand binding assay with [3H]ifenprodil, membranes of transfected HEK cells", "conditions": "5 nM radioligand, non-specific binding with 10 µM unlabeled ifenprodil, 37 °C; single replicate", "protocol": "as §1"}, "GluN1b wt/ GluN2B wt": {"molecular_target": "GluN1b wt/ GluN2B wt (Rattus norvegicus, UniProt P35439+Q00960)", "test": "Ligand binding assay with [3H]ifenprodil, membranes of transfected HEK cells", "conditions": "5 nM radioligand, non-specific binding with 10 µM unlabeled ifenprodil, 37 °C; single replicate", "protocol": "as §1"}, "[1]": {"conditions": "compound concentration 0.1 μM, 0.1 µM"}, "[2]": {"conditions": "compound concentration 1 μM, 1 µM"}, "[3]": {"conditions": "compound concentration 10 μM, 10 µM"}, "[4]": {"conditions": "compound concentration 30 μM, 30 µM"}},
  "note": "Where “and” joins values, the source holds several entries; their conditions need not be identical. Equal entries are not always repeated.",
  "data": [
    {"compound": "Oc1ccc2c(c1)CCN(CCCCc1ccccc1[18F])CC2O", "note": "(racemic) [^18F-OF-NB1]", "values": [
      {"measurement": "blood–brain barrier permeability", "setting": "GluN2B subunits", "value": "high"},
      {"measurement": "cerebellar accumulation", "setting": "GluN2B subunits; ex vivo biodistribution assays", "value": "high cerebellar accumulation"}
    ]},
    {"compound": "Oc1ccc2c(c1)CCN(CCCCc1ccccc1[18F])C[C@@H]2O", "note": "[(R)-^18F-OF-NB1]", "values": [
      {"measurement": "affinity in vivo relative to the S-enantiomer", "setting": "GluN2B", "value": "four- to five-fold higher"},
      {"measurement": "cingulate cortex accumulation", "setting": "GluN2B", "value": "high cingulate cortex accumulation"},
      {"measurement": "uptake", "setting": "GluN2B", "value": "high uptake"},
      {"measurement": "washout kinetics", "setting": "GluN2B", "value": "slow washout kinetics"}
    ]},
    {"compound": "Oc1ccc2c(c1)CCN(CCCCc1ccccc1F)C[C@@H]2O", "note": "[OF-NB1 R]", "values": [
      {"measurement": "inhibition (%)", "setting": "GluN1a wt/ GluN2B E236A; compound concentration 0.001 μM, 0.001 µM", "value": "0.5349% and -0.3615% and 0.07864% and -0.02364% and -0.08675%"},
      {"measurement": "inhibition (%)", "setting": "GluN1a wt/ GluN2B E236A; compound concentration 0.01 μM, 0.01 µM", "value": "2.174% and 5.182% and 1.1167% and -0.03546% and -0.1952%"},
      {"measurement": "inhibition (%)", "setting": "GluN1a wt/ GluN2B E236A; [1]", "value": "22.83% and 11.3477% and 24.7562% and 0% and 0.08675%"},
      {"measurement": "inhibition (%)", "setting": "GluN1a wt/ GluN2B E236A; [2]", "value": "62.3641% and 56.7584% and 57.7225% and 68.2307% and 52.0278%"},
      {"measurement": "inhibition (%)", "setting": "GluN1a wt/ GluN2B E236A; [3]", "value": "74.0293% and 68.3069% and 74.5203% and 84.919% and 71.8716%"},
      {"measurement": "inhibition (%)", "setting": "GluN1a wt/ GluN2B E236A; [4]", "value": "82.623% and 76.0795% and 83.6584% and 89.363% and 81.8261%"},
      {"measurement": "inhibition (%)", "setting": "GluN1a wt/ GluN2B F114A; [1]", "value": "0.07918% and 0.5179% and 0.211%"},
      {"measurement": "inhibition (%)", "setting": "GluN1a wt/ GluN2B F114A; [2]", "value": "29.9386% and 5.971% and 22.998% and 16.9662%"},
      {"measurement": "inhibition (%)", "setting": "GluN1a wt/ GluN2B F114A; [3]", "value": "58.532% and 61.9095% and 61.1489% and 64.1685%"},
      {"measurement": "inhibition (%)", "setting": "GluN1a wt/ GluN2B F114A; [4]", "value": "87.8657% and 75.6136% and 78.22% and 87.6368%"}
    ]},
    {"compound": "CC(C(O)c1ccc(O)cc1)N1CCC(Cc2ccccc2)CC1", "note": "(stereo not shown) [[^3H]ifenprodil, ifenprodil]", "values": [
      {"measurement": "specific binding (cpm)", "setting": "GluN1a wt/ GluN2B F176A", "value": "4.5 cpm and 6.5 cpm"},
      {"measurement": "specific binding (cpm)", "setting": "GluN1b wt/ GluN2B F194A", "value": "-0.5 cpm and -1.5 cpm"},
      {"measurement": "specific binding (cpm)", "setting": "GluN1b wt/ GluN2B F176A", "value": "-1.5 cpm and -2.5 cpm and 0.5 cpm"},
      {"measurement": "specific binding (cpm)", "setting": "GluN1a wt/ GluN2B F194A", "value": "3.5 cpm and 2.5 cpm and -1.5 cpm"},
      {"measurement": "specific binding (cpm)", "setting": "GluN1a wt/ GluN2B wt", "value": "25.5 cpm and 9.5 cpm and 4.5 cpm"},
      {"measurement": "specific binding (cpm)", "setting": "GluN1b wt/ GluN2B wt", "value": "4.5 cpm and 5.5 cpm and 11.5 cpm"}
    ]}
  ]
}
